Data reported in publication PMC7948455, “Novel drug discovery platform for spinocerebellar ataxia, using fluorescence technology targeting β-III-spectrin” (The Journal of Biological Chemistry, 2020).
“Also recorded” adds a separate entry of the source. Read-outs that look alike come from different tables or passages of the source.

How the values were obtained:
[1] = biological target: T1, binding of the mutant β-III-spectrin L253P ABD to F-actin (Homo sapiens, UniProt O15020, L253P); assay: Primary live-cell FRET assay (GFP-ABD-L253P + Lifeact-mCherry) in HEK293-6E cells; type: cell-based; settings: for Shift of FRET: 10 μM; for Effect of Hit compound on primary FRET: LOPAC Hits (10 μM screen, 4SD threshold, 120 min) and dose response
T1 construct: the β-III-spectrin (human) ABD residues 1 to 284; expressed in transfected cells; host or cells: HEK293-6E (pTT5 vector, transient transfection)
Protocol: To develop a biosensor that monitors the binding of mutant L253P β-III-spectrin to actin filaments in live cells, a FRET approach was tested. A FRET donor construct consisting of green fluorescent protein fused to the N terminus of the mutant ABD (GFP-ABD-L253P) was coexpressed in HEK293-EBNA1-6E (HEK293-6E) cells with a FRET acceptor construct consisting of the actin-binding peptide, Lifeact, fused to the N terminus of red fluorescent protein, mCherry (Lifeact-mCherry). Lifeact is a 17 amino acid peptide derived from the yeast actin-binding protein, ABP140 ([15]). […] The cryo-EM structures of ABD L253P and Lifeact on actin indicate that the binding sites overlap on actin units. With ABD L253P and Lifeact bound on neighboring actin units, we predicted an average distance of ∼80 Å between GFP and mCherry (Fig. 1). With a known Förster distance R0 of 52.4 Å ([17]), this corresponds to FRET value of 0.07, a sufficient signal for a biosensor platform. To design a system most compatible for large production and eventual screening of 50,000+ compound libraries, we used HEK293-6E cells, a suspension cell line that yields greater levels (>threefold) of recombinant protein expression ([18], [19]).
With a constant amount of GFP-ABD-L253P expressed, increased Lifeact-mCherry expression increases FRET with an exponential plateau to 0.12 (Fig. 2A). To measure the nonspecific component of our FRET readout, we concurrently tested expression of mCherry in place of Lifeact-mCherry. For comparison, the Lifeact-mCherry and mCherry fluorescence intensity values (normalized to 1:1 GFP-ABD:Lifeact-mCherry sample) are plotted on the X-axis for samples transfected with different donor-to-acceptor DNA ratios. […] With the trade-off between high FRET and minimal nonspecific FRET, the donor:acceptor ratio 1:2 was chosen for the experiments that followed (Fig. 2A). […] Of note, we also tested the biosensor using WT-ABD, which yielded substantially lower FRET (Fig. S1), consistent with the 1000-fold decrease in affinity of WT-ABD for actin ([10]). We proceeded to test the compatibility of the GFP-ABD-L253P and Lifeact-mCherry assay for primary compound screening and the GFP-ABD-L253P and mCherry assay as a potential high-throughput counter screen.
To test the performance of the assay in HTS, the 1280 LOPAC compounds, together with 256 DMSO controls, were dispensed in 5 nl volumes into individual wells of 1536-well microplates and stored at −20 °C until use. To test the reproducibility of replicate screens on the same day, a single batch of HEK293 cells was transfected with GFP-ABD-L253P and Lifeact-mCherry. In addition, control cells were transfected with only GFP-ABD-L253P, to determine compound effect on donor-only lifetime (τD). To test reproducibility of the screens across different days, identical transfections were performed on another batch of HEK293-6E cells on a second day. Following plate thaw, 5 μl of assay cells were loaded in each well via a multidrop liquid dispenser, and a time course of compound effects (at 20, 120, and 180 min post load) on fluorescence lifetime was acquired using a fluorescence lifetime plate reader (FLT-PR). This technology has been advanced to high-density 1536-well plates in recent years for successful HTS using a range of protein biosensors including sarcoplasmic reticulum Ca-ATPase ([24], [25], [26], [27]), ryanodine receptor ([23], [28]), actin ([20]), tumor necrosis factor receptor 1 ([29], [30]), and tau ([31]).
At 2 × 10^6 cells/ml, HEK293-6E cells were transfected with GFP-ABD-L253P or GFP-ABD-WT (2.4 μg), Lifeact-mCherry (2.4–16.8 μg), mCherry (1.2–16.8 μg), and/or pTT5 (0.8–17.6 μg), as indicated, using the 293fectin protocol (Thermo Fisher Scientific) with 20 μg total DNA. Cells were transfected with either GFP-ABD-L253P or –WT, but coexpression of the WT and mutant isoform was not explored in this study. The cells were harvested 24 h later by centrifugation at 100g for 5 min and then washed twice with PBS. […]

HEK293-6E cells = assay: Trypan blue cell viability assay; type: cell-based
Protocol: HEK293-6E cell viability was measured using trypan blue (0.03%) staining and a Countess Automated Cell counter (Invitrogen). Nontransfected HEK293-6E cells were spun at 100g for 5 min at 21 °C and resuspended in 10 ml of PBS. The centrifugation and resuspension were repeated twice more. Final cell concentration was 1 × 10^6 cells/ml. Cells were incubated with 2% DMSO or 3 to 50 μM compound (as indicated) for 3 h at room temperature (21 °C). After addition of 100 μl of 0.06% trypan blue solution in PBS, 10 μl was loaded on a slide and injected into the cell counter, and cell viability was measured.

[2] = 10 μM Hit compound, 3 h incubation

T1 sequence (O15020 1-284 L253P): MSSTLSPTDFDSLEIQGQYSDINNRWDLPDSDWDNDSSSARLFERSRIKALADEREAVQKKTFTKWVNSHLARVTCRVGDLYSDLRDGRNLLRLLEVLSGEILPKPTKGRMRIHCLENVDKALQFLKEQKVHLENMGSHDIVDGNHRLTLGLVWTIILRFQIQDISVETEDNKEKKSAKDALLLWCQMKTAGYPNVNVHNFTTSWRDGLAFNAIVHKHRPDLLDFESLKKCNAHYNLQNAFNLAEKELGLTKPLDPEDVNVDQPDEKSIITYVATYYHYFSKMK

| Structure (SMILES) | Shift of FRET [1] | Effect of Hit compound on primary FRET [1] | Effect on HEK293-6E cell viability (HEK293-6E cells; [2]) | Reduction of Total FRET in primary FRET assay ([1]; 1 μM swinholide A, relative to DMSO) | EC50 ([1]; Plate A, 1536-well, read-out: EC50 of specific FRET dose response) | EC50 ([1]; Plate B, 1536-well, read-out: EC50 of specific FRET dose response) | EC50 ([1]; Plate C, 1536-well, read-out: EC50 of specific FRET dose response) | Reduction in FRET (Fig. 2B) ([1]; swinholide A (3 μM in Fig. 2B legend), relative to DMSO, n = 3) | EC50 ([1]; triplicate 12-point concentration response, 1536-well plates, read-out: EC50 of FRET reduction, average) | Effect on HEK293-6E cell viability (HEK293-6E cells; 3 μM swinholide A, 50 μM tegaserod, 3 h) |
| --- | --- | --- | --- | --- | --- | --- | --- | --- | --- | --- |
| CC(C)(C)c1ccc(/C=C/C(=O)Nc2ccc3c(c2)OCCO3)cc1 [AMG 9810] | 2 to 14% | decrease FRET | do not significantly alter | – | – | – | – | – | – | – |
| O=C(O)c1cc([N+](=O)[O-])ccc1NCCCc1ccccc1 [NPPB] | – | decrease FRET | do not significantly alter | – | – | – | – | – | – | – |
| CCOc1nc2cccc(C(=O)O)c2n1Cc1ccc(-c2ccccc2-c2nnn[nH]2)cc1 [candesartan] | 2 to 14% | decrease FRET | do not significantly alter | – | – | – | – | – | – | – |
| CCCCCCCC/C=C\CCCCCCCC(=O)NCc1ccc(O)c(OC)c1 [olvanil] | 2 to 14% | decrease FRET; also recorded: subtly reduced | do not significantly alter | – | – | – | – | – | – | – |
| CO[C@H]1C[C@H](CC[C@H](C)[C@H](O)[C@H](C)[C@H]2OC(=O)/C=C/C(C)=C/C[C@H](O)C[C@@H]3C=CC[C@@H](C[C@H](OC)[C@@H](C)[C@@H](O)C[C@@H](O)[C@H](C)[C@@H]([C@@H](C)[C@@H](O)[C@@H](C)CC[C@H]4C[C@H](OC)C[C@H](C)O4)OC(=O)/C=C/C(C)=C/C[C@H](O)C[C@@H]4C=CC[C@@H](C[C@H](OC)[C@@H](C)[C@@H](O)C[C@@H](O)[C@@H]2C)O4)O3)O[C@@H](C)C1 [swinholide A] | – | – | – | > 50% | 241 nM | 284 nM | 267 nM | 56 ± 7% | 264 nM | did not significantly alter |
